Test results published in patent US20140050778A1, “NUCLEIC ACID BINDING COMPOUNDS, METHODS OF MAKING, AND USE THEREOF” (UNIVERSITY OF ROCHESTER, priority 2010, published 2014).

Key:
[1] = system: C5-14 C2C12 mouse myoblasts ((CUG)800 RNA-MBNL1 complexes); experiment: Firefly luciferase reporter with ~800 CUG repeats in hDMPK 3'UTR; type: cell-based; settings: C5-14 myoblasts, 3 days; compound 4 0-100 μM, compound 11 0-200 μM
Experimental: (§1) The ability of selected compounds to inhibit the formation of CUG^exp RNA-MBNL1 complexes in mouse myoblasts was then evaluated. […] Cells were grown in 100 μl growth media in 96-well plates to 10% confluency. […] Culture media was replaced with fresh media containing 1% WST-1 reagent (Roche). After 15-20 minutes of incubation, the WST-1 containing media was transferred to a clear 96-well plate, and the absorbances at 450 nm and 690 nm measured with a PerkinElmer EnVision Plate Reader. Cells were gently rinsed (1×PBS) before incubation at -20° C. in 100 μl 1X Passive Lysis Buffer (Promega) for 10 minutes. Immediately before luminescence detection, 20 μl of each lysate was mixed with 50 μl of Luciferase Assay Reagent (Promega) in a fresh opaque-white 96-well plate. Luminescence values were normalized for well-to-well variations in viable cell numbers by dividing by the corresponding (A450 nm-[…] nm) values of the WST-1 containing media. […] Thus, CUG^exp binding compounds are capable of releasing the sequestered mRNA transcripts into the cytoplasm for translation.

[2] = system: C1-S C2C12 mouse myoblasts; experiment: Firefly luciferase reporter without CUG repeats (control); type: cell-based; settings: C1-S cells (no CUG repeats), 3 days
Experimental: as §1

C1-S cells = experiment: Total protein in cell lysates (Bradford assay); type: cell-based, mouse; settings: increasing concentration
C5-14 cells = type: cell-based, mouse
Description: Formation of (CUG)800 RNA-MBNL1 complexes in the C5-14 cell line suppresses translation of this mRNA and, therefore, suppresses the cellular level of luciferase Inhibition of protein complexation to the (CUG)800 RNA allows translation to occur, restoring luciferase expression. A second cell line (C1-S) carrying an analogous luciferase construct lacking the CUG repeats in the 3′-UTR was used as a positive control for luciferase expression. […] It was hypothesized that binding of the compounds of the present invention to the (CUG)800 repeat in C5-14 cells would likewise promote release of the luciferase transcripts from the nucleus, resulting in increased luciferase expression and activity. In contrast, luciferase activity in positive control (C1-S) cells should not be affected by the presence of CUG RNA binding compounds. […] The fact that this effect is not observed for compounds 10 and 11 likely results from their greater selectivity for CUG repeats. Thus, CUG^exp binding compounds are capable of releasing the sequestered mRNA transcripts into the cytoplasm for translation.

HSA^LR transgenic mice = experiment: MBNL1-dependent splicing in mouse myotonic dystrophy model (RT-PCR, vastus muscle); type: in vivo; settings: 40 mg/kg intraperitoneally once per day for 5 days
Experimental: Mouse handling and experimental procedures were conducted in accordance with the Association for Assessment and Accreditation of Laboratory Animal Care. […] Age- and gender-matched HSA^LR mice (12-16 weeks old) were injected intraperitoneally with 40 mg/kg of compounds or saline alone once per day for 5 days. Mice were sacrificed one day after the last injection, and vastus muscle was obtained for splicing analysis. RNA extraction, cDNA preparation, and RT-PCR were performed as described previously. The PCR products were electrophoresed on agarose gels for separation, and scanned with a laser fluorimager (Typhoon, GE Healthcare). Quantitative analysis of amplified products was performed by ImageQuant software (Molecular Dynamics). Differences between two groups were evaluated by unpaired Student's t-test. A critical test of a compound's performance is its ability to function in vivo. DM1 has several well-studied mouse models (Gomes-Pereira et al., “Myotonic Dystrophy Mouse Models: Towards Rational Therapy Development,” Trends Mol. Med. 17:506-517 (2011), which is hereby incorporated by reference in its entirety). Compound activity in the HSA^LR mouse model, in which transgenic mice carry a long CTG repeat inserted into the human skeletal actin (HSA) gene in skeletal muscle (Mankodi, “Myotonic Dystrophy in Transgenic Mice Expressing an Expanded CUG Repeat,” Science 289:1769-1772 (2000), which is hereby incorporated by reference in its entirety) was examined. […] They also display aberrant splicing of genes, including Clcn1 and Atp2a1, which are hallmarks of nuclear transcript sequestration.

mouse C2C12 myoblasts = experiment: Cell permeability by fluorescence microscopy; type: cell-based; settings: 12 h, 125 μM, intrinsic fluorescence
Experimental: For cell permeability studies, human fibroblasts or mouse myoblasts grown to 80% confluence were exposed to compounds for 12 hours in a 96 well tissue culture plate. After removal of the culture media (DMEM, with 10% FBS, 1% pen-strep (GIBCO)) the cells were washed twice with PBS to remove excess compounds. Cells were then imaged while in buffer under a fluorescence microscope (Olympus IX70) in the 96-well plate using a 460 nm emission filter.

## CCc1nc2cc3ccccc3cc2cc1C(=O)N1CCC[C@H]1C(=O)N[C@@H](C/C=C\C[C@H](NC(=O)[C@@H]1CCCN1C(=O)c1cc2cc3ccccc3cc2nc1CC)C(=O)N[C@@H](CCCCN)C(=O)NCCCN)C(=O)N[C@@H](CCCCN)C(=O)NCCCN [Compound 4]
[1]
  luciferase activity: concentration-dependent increases in luciferase activity
[2]
  luciferase signal: concentration-dependent decrease in luciferase activity
C1-S cells
  concentration of total protein in cell lysates: decreasing level of protein expression
C5-14 cells
  concentration of total protein in cell lysates: decreasing level of protein expression
HSA^LR transgenic mice
  improvement of Atp2a1 splicing: qualitatively appeared to restore splicing
  improvement of Clcn1 splicing: modest but statistically significant (P=0.0115) improvement

## CCc1nc2cc3ccccc3cc2cc1C(=O)N1CCC[C@H]1C(=O)N[C@@H](C/C=C/C[C@H](NC(=O)[C@@H]1CCCN1C(=O)c1cc2cc3ccccc3cc2nc1CC)C(=O)N[C@@H](CCCCN)C(=O)NCCCN)C(=O)N[C@@H](CCCCN)C(=O)NCCCN [Compound 5]
Mouse C2C12 myoblasts
  cell membrane penetration / localization: readily penetrate cell membranes and localize in the nucleus
